Experimental data as given in patent publication US20050250819A1 (priority 2004, published 2005).

The molecules below were run on Type III protein secretion of the chimeric SopE‘-’Bla polypeptide (SPI1 type III protein secretion system) (assay: Primary assay: Type III protein secretion of the chimeric SopE'-'Bla polypeptide by Salmonella enterica). Settings: read-out: SopE IC50(μM).
Type: cell-based
Text: Primary assay: Type III protein secretion of the chimeric SopE‘-’Bla polypeptide by Salmonella enterica. This procedure is a cell-based assay that measures the type III-dependent secretion by Salmonella enterica of a plasmid-encoded chimeric polypeptide whose synthesis can be regulated, and which is endowed with an enzymatic activity that can be monitored colorimetrically by hydrolysis of a substrate that is unable to penetrate into the bacterial cytoplasm within the time constraints of the reaction. Thus, the colormetric reaction is not influenced by SopE‘-’Bla polypeptide in the bacterial cytplasm. Instead, it effectively measures the amount of polypeptide that has been secreted from the S. enterica cytoplasm to the extracellular medium via type III system protein secretion.
The SopE‘-’Bla recombinant polypeptide consists of two functionally distinct domains spliced together. The N-terminus domain is encoded by a polynucleotide region specifying the signal for type III secretion of the SopE polypeptide of S. enterica, an effector of the SPI1 type III protein secretion system. The C-terminus domain of SopE‘-’Bla consists of a 263 amino acid peptide sequence that corresponds to the TEM-1 β-lactamase expressed by plasmid pBR322 but without its N-terminal signal sequence. The TEM-1 β-lactamase part of the SopE‘-’Bla chimeric polypeptide is used as a reporter enzyme. It is capable of hydrolyzing nitrocefin resulting in a product whose accumulation can be monitored by colorimetric detection. The secretion of the SopE‘-’Bla chimeric polypeptide from the cytoplasm to the extracellular medium is dependent on type III protein secretion.
For this procedure, cells grown under conditions known to favor a functional SPI1 secretion system are induced for expression of the SopE‘-’Bla protein and grown either in the presence or in the absence of putative inhibitors for determined time. Nitrocefin is then added to the various cultures and its hydrolysis are used for quantitation. An inhibitor of Type III protein secretion is generally a compound that reduces the signal of the enzymatic reaction by decreasing the amount of SopE‘-’Bla secreted into the extracellular medium.
Molecule `Cc1ccccc1/C=C(/NC(=O)c1ccc(C(F)(F)F)cc1)C(=O)N[C@@H](CSCc1ccccc1)C(=O)O` [Compound 138] has an IC50 of 100 µM.
`O=C(NC1(C(=O)O)CCCCC1)/C(=C\c1ccc(Cl)c(Cl)c1)NC(=O)c1ccc(-c2ccccc2)cc1` [Compound 114] was tested, and the IC50 was 7.3 µM.
`CC(C)(S)C(NC(=O)/C(=C\c1cccc(Oc2ccccc2)c1)NC(=O)c1ccc(C(F)(F)F)cc1)C(=O)O` (centres unmarked) [Compound 160] gave an IC50 of 16 µM.
With `O=C(O)CCCCNC(=O)/C(=C\c1cccc(C(F)(F)F)c1)NC(=O)c1ccc(-c2ccccc2)cc1` [Compound 99] the IC50 was 42 µM.
`O=C(NC(Cc1ccc(Cl)cc1)C(=O)O)/C(=C\c1cccc(C(F)(F)F)c1)CC(=O)c1ccc(-c2ccccc2)cc1` (centres unmarked) [Compound 4, 2-[2-(2-Biphenyl-4-yl-2-oxoethyl)-3-(3-trifluoromethylphenyl)acryloylamino]-3-(4-chlorophenyl)propionic acid] gave an IC50 of 1.1 µM.
For `O=C(NCC1CCCO1)/C(=C\c1ccc(-c2ccccc2)cc1)NC(=O)c1ccc(C(F)(F)F)cc1` (centres unmarked) [Compound 2, N-{2-Biphenyl-4-yl-1-[(tetrahydro-furan-2-yl-methyl)carbamyl]vinyl}-4-trifluoromethylbenzamide], the IC50 was 69 µM.
Molecule `O=C(N[C@H](Cc1ccc(Cl)cc1)C(=O)O)/C(=C\c1cccc(C(F)(F)F)c1)NC(=O)c1ccc(Cl)cc1` [Compound 28, (R)-2-[2-(4-Chlorobenzoylamino)-3-(3-trifluoromethylphenyl)acryloylamino]-3-(4-chlorophenyl)propionic acid] has an IC50 of 86 µM.
`O=C(N[C@H](COCc1ccccc1)C(=O)O)/C(=C\c1ccc(-c2ccccc2)cc1)NC(=O)c1ccc(C(F)(F)F)cc1` [Compound 24, (R)-3-Benzyloxy-2-[3-biphenyl-4-yl-2-(4-trifluoromethylbenzoylamino)-acryloylamino]propionic acid] showed an IC50 of 12.5 µM.
Molecule `O=C(O)[C@H](COCc1ccccc1)NC(=O)N(CCc1ccc(-c2ccccc2)cc1)Cc1cccc(C(F)(F)F)c1` [Compound 88, (S)-3-Benzyloxy-2-[3-(2-biphenyl-4-yl-ethyl)-3-(3-trifluoromethylbenzyl)ureido]propionic acid] has an IC50 of 4 µM.
Molecule `COc1cccc(C(=O)N/C(=C/c2ccc(Cl)c(Cl)c2)C(=O)NC(Cc2ccc(Cl)cc2)C(=O)O)c1` (centres unmarked) [Compound 117] has an IC50 of 15.5 µM.
`O=C(O)[C@H](Cc1ccc(Cl)cc1)NC(=O)N(CCc1ccc(-c2ccccc2)cc1)Cc1ccc(Cl)c(Cl)c1` (stereo in doubt) [Compound 86, 2-[3-(2-Biphenyl-4-yl-ethyl)-3-(3,4-dichlorobenzyl)ureido]-3-(4-chlorophenyl)-propionic acid] showed an IC50 of 1.1 µM.
`O=C(NN(Cc1cccc(Oc2ccccc2)c1)C(=O)N[C@@H](COCc1ccccc1)C(=O)O)c1ccc(C(F)(F)F)cc1` [Compound 10, 4-Trifluoromethylbenzoic acid-N′-[(3-phenoxyphenyl)methyl]-N′-[[[(2-benzyloxy)-1-carboxyethyl]amino]carbonyl]hydrazide] was tested, and the IC50 was 22 µM.
Molecule `O=C(NC1(C(=O)O)CCCCC1)/C(=C\c1ccc(-c2ccccc2)cc1)NC(=O)c1ccc(C(F)(F)F)cc1` [Compound 135] has an IC50 of 50 µM.
`CN(C(=O)/C(=C\c1cccc(C(F)(F)F)c1)NC(=O)c1ccc(-c2ccccc2)cc1)[C@H](Cc1ccc(Cl)cc1)C(=O)O` [Compound 42, (R)-2-{[2-[(Biphenyl-4-carbonyl)amino]-3-(3-trifluoromethylphenyl)acryloyl]-methylamino}-3-(4-chlorophenyl)propionic acid] gave an IC50 of 15 µM.
Molecule `O=C(NC(Cc1ccc(Br)cc1)C(=O)O)/C(=C\c1cccc(C(F)(F)F)c1)NC(=O)c1ccc(-c2ccccc2)cc1` (centres unmarked) [Compound 60, 2-[2-[(Biphenyl-4-carbonyl)amino]-3-(3-trifluoromethylphenyl)acryloylamino]-3-(4-bromophenyl)propionic acid] has an IC50 of 9.2 µM.
Work on `O=C(NC(Cc1ccc(Cl)cc1)C(=O)O)/C(=C\c1ccc(Cl)c(Cl)c1)NC(=O)c1ccc(C(F)(F)F)cc1` (centres unmarked) [Compound 91] yielded an IC50 of 7.6 µM.
Molecule `O=C(N[C@@H](Cc1ccc(Cl)cc1)C(=O)O)/C(=C\c1cccc(C(F)(F)F)c1)NC(=O)c1ccc(Cl)cc1` [Compound 27, (S)-2-[2-(4-Chlorobenzoylamino)-3-(3-trifluoromethylphenyl)acryloylamino]-3-(4-chlorophenyl)propionic acid] has an IC50 of 87 µM.
With `CC(C)(S)C(NC(=O)/C(=C\c1cccc(C(F)(F)F)c1)NC(=O)c1ccc(-c2ccccc2)cc1)C(=O)O` (centres unmarked) [Compound 95] the IC50 was 14.1 µM.
For `O=C(NN(Cc1cccc(C(F)(F)F)c1)C(=O)NC(Cc1ccc(Cl)cc1)C(=O)O)c1ccc(-c2ccccc2)cc1` (centres unmarked) [Compound 51, 4-Biphenylcarboxylic acid-N′-[(3-trifluoromethylphenyl)methyl]-N′-[[[2-(4-chlorophenyl)-1-carboxyethyl]amino]carbonyl]hydrazide], the IC50 was 8 µM.
In the case of `O=C(N[C@H](COCc1ccccc1)C(=O)O)/C(=C\c1ccc(Cl)c(Cl)c1)NC(=O)c1cc2ccccc2s1` [Compound 68, (R)-2-[2-[(Benzo[b]thiophene-2-carbonyl)amino]-3-(3,4-dichlorophenyl)-acryloylamino]-3-benzyloxypropionic acid], the IC50 is reported as 52 µM.
With `O=C(NC(Cc1ccc(C(F)(F)F)cc1)C(=O)O)/C(=C\c1cccc(C(F)(F)F)c1)NC(=O)c1ccc(-c2ccccc2)cc1` (centres unmarked) [Compound 72, 2-[2-[(Biphenyl-4-carbonyl)amino)-3-(3-trifluoromethylphenyl)acryloylamino]-3-(4-trifluoromethylphenyl)propionic acid] the IC50 was 12.8 µM.
`O=C(O)[C@H](COCc1ccccc1)NC(=O)N(CCc1ccc(-c2ccccc2)cc1)Cc1ccc(Cl)c(Cl)c1` [Compound 89, (S)-3-Benzyloxy-2-[3-(2-biphenyl-4-yl-ethyl)-3-(3,4-dichlorobenzyl)ureido]propionic acid] showed an IC50 of 2.1 µM.
With `O=C(NC(CCSCc1ccccc1)C(=O)O)/C(=C\c1ccc(Cl)cc1Cl)NC(=O)c1ccc(-c2ccccc2)cc1` (centres unmarked) [Compound 104] the IC50 was 3.8 µM.
Molecule `O=C(N[C@@H](Cc1ccc(Cl)cc1)C(=O)O)/C(=C\c1ccc(Cl)c(Cl)c1)NC(=O)c1cc2ccccc2s1` [Compound 66, (S)-2-[2-[(Benzo[b]thiophene-2-carbonyl)amino]-3-(3,4-dichlorophenyl)-acryloylamino]-3-(4-chlorophenyl)propionic acid] has an IC50 of 19 µM.
For `O=C(NC(Cc1ccc(F)cc1)C(=O)O)/C(=C\c1cccc(C(F)(F)F)c1)NC(=O)c1ccc(-c2ccccc2)cc1` (centres unmarked) [Compound 71, 2-[2-[(Biphenyl-4-carbonyl)amino]-3-(3-trifluoromethylphenyl)acryloylamino]-3-(4-fluorophenyl)propionic acid], the IC50 was 34.2 µM.
`O=C(N[C@H](COCc1ccccc1)C(=O)O)/C(=C\c1ccc(Br)cc1)NC(=O)C1CCN(c2nccc(C(F)(F)F)n2)CC1` [Compound 80, (R)-3-Benzyloxy-2-(3-(4-bromophenyl)-2-{[1-(4-trifluoromethylpyrimidin-2-yl)-piperidine-4-carbonyl]amino}acryloylamino)propionic acid] gave an IC50 of 38.5 µM.
Molecule `CC(C)(S)C(NC(=O)/C(=C\c1ccc(Cl)c(Cl)c1)NC(=O)c1ccc(C(F)(F)F)cc1)C(=O)O` (centres unmarked) [Compound 120] has an IC50 of 22.7 µM.
In the case of `COc1ccc(/C=C(/NC(=O)c2ccc(-c3ccccc3)cc2)C(=O)N[C@@H](Cc2ccc(Cl)cc2)C(=O)O)cc1OC` (stereo in doubt) [Compound 50, 2-[2-[(Biphenyl-4-carbonyl)amino]-3-(3,4-dimethoxyphenyl)acryloylamino]-3-(4-chlorophenyl)propionic acid], the IC50 is reported as 79.4 µM.
In the case of `O=C(O)C(Cc1ccc(Cl)cc1)NC(=O)N(CCc1ccc(-c2ccccc2)cc1)Cc1cccc(C(F)(F)F)c1` (centres unmarked) [Compound 87, 2-[3-(2-Biphenyl-4-yl-ethyl)-3-(3-trifluoromethylbenzyl)ureido]-3-(4-chlorophenyl)propionic acid], the IC50 is reported as 1.5 µM.
Work on `O=C(NN(Cc1ccc(Cl)c(C(F)(F)F)c1)C(=O)NC(Cc1ccc(Cl)cc1)C(=O)O)c1ccc(-c2ccccc2)cc1` (centres unmarked) [Compound 52, 4-Biphenylcarboxylic acid-N′-[(4-chloro-3-trifluoromethylphenyl)methyl]-N′-[[[2-(4-chlorophenyl)-1-carboxyethyl]amino]carbonyl]hydrazide] yielded an IC50 of 3.1 µM.
`O=C(N[C@@H](CSCc1ccccc1)C(=O)O)/C(=C\c1cccc(Oc2ccccc2)c1)NC(=O)c1ccc(Cl)cc1` [Compound 43, (R)-3-Benzylsulfanyl-2-[2-(4-chlorobenzoylamino)-3-(3-phenoxyphenyl)-acryloylamino]propionic acid] was tested, and the IC50 was 34.2 µM.
With `O=C(N[C@@H](Cc1ccc(Cl)cc1)C(=O)O)/C(=C\c1ccc(Oc2ccccc2)cc1)NC(=O)c1ccc(C(F)(F)F)cc1` [Compound 16, (S)-3-(4-Chlorophenyl)-2-[3-(4-phenoxyphenyl)-2-(4-trifluoromethylbenzoylamino)-acryloylamino]propionic acid] the IC50 was 4.9 µM.
